Holding throughout (assay type): cell-based
Assay [1] has as its target T1, GPR139 (Homo sapiens, UniProt Q6DWJ6).
T1 construct: host or cells: CHO-k1
T1 sequence (Q6DWJ6 1-353): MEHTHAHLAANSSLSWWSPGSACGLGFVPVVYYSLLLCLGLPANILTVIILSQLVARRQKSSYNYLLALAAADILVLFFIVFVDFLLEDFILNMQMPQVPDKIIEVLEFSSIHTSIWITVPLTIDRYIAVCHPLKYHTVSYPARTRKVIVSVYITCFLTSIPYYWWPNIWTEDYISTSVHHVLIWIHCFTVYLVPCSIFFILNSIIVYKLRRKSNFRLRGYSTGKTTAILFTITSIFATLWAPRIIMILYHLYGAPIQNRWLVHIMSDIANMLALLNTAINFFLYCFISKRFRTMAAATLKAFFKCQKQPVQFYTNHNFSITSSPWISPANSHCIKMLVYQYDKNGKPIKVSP
The experiment in a line: Phospho-ERK1/2 HTRF assay in CHO-GPR139 cells. The conditions noted are these: ERK phosphorylation. As for the experimental part: All compounds were tested on a CHO-k1 cell line stably expressing GPR139 (CHO-GPR139)[11] kindly provided by H. Lundbeck A/S, Denmark. GPR139-specific responses were assessed using a CHO-k1 cell line stably expressing the muscarinic acetylcholine receptor M1 (CHO-M1) (The Missouri S&T cDNA Resource Center, # CEM100TN00).
Phospho-ERK measurements were made using the Advanced Phospho-ERK1/2 (Thr202/Tyr204) HTRF kit by Cisbio (Codolet, France). Approximately 24 hours prior to the experiment, CHO-GPR139 cells were plated at 50,000 cells/well onto a 96-well plate and cultured as detailed above. Approximately 6 hours later, the media was aspirated, replaced with 50 μL serum-free media, and the cells were allowed to serum starve overnight. The day of the experiment, serial dilutions of the test compounds and controls were made in serum-free media at 2x final concentration. 50 μL of test compounds were added directly to the appropriate wells for 5 minute stimulation at 37 °C. At this point, the media and compounds were rapidly aspirated, lysis/blocking buffer was added, and cells were lysed on a shaker for 30 minutes at room temperature.
(§1) The Ca^2+ and ERK responses were normalized as indicated and the concentration response curves were fitted by Prism 6 software (GraphPad) using nonlinear regression in a sigmoidal model with variable slope, as has been previously described.
(In general: TR-FRET usually uses a lanthanide donor and a delayed reading to cut background.)

Another assay concerns the target T2, GPR139 F109A^3×33 (Homo sapiens, UniProt Q6DWJ6, F109A).
T2 construct: myc (N); expressed in transfected cells
T2 sequence (Q6DWJ6 1-353 F109A): T1 sequence (Q6DWJ6 1-353) with F109A
As to the kind of experiment: Ca2+ mobilization on GPR139 mutant F109A. The procedure: Figure 4 Ca^2+ mobilization concentration-response curves of AC4 on GPR139 wild-type (WT) and mutants. Data is shown from a representative experiment (mean ± S.D.) out of three independent experiments performed in duplicate. Data is normalized to the Ca^2+ response of buffer (0%) and 100 μM AC4 (100%) on myc-GPR139(WT). Residue numbering in superscript is according to GPCRdb numbering system.
The mutational studies were performed as previously described.
For orientation: Calcium assays in cells follow changes in intracellular calcium, usually with a dye or a luminescent sensor.

In assay [2] the target is T1, GPR139. As to the kind of experiment: Fluo-4 calcium mobilization assay, agonist mode, concentration-response curves in CHO-GPR139 cells. The procedure: All compounds were tested on a CHO-k1 cell line stably expressing GPR139 (CHO-GPR139)[11] kindly provided by H. Lundbeck A/S, Denmark. GPR139-specific responses were assessed using a CHO-k1 cell line stably expressing the muscarinic acetylcholine receptor M1 (CHO-M1) (The Missouri S&T cDNA Resource Center, # CEM100TN00). The CHO-GPR139 cells were grown in Dulbecco’s modified Eagle’s medium (DMEM) F12-Kaighn’s (ThermoFisher Scientific # 21127) supplemented with 10% dialyzed fetal bovine serum (United States origin; ThermoFisher Scientific # 26400), 1% GlutaMAX-I (100X) (ThermoFisher Scientific # 35050061), and 100 units/mL penicillin and 100 µg/mL streptomycin (ThermoFisher Scientific # 15140122) and 1 mg/mL geneticin (ThermoFisher Scientific # 11811031). The CHO-M1 cells were grown in Ham’s F12 (ThermoFisher Scientific # 21765) supplemented with 10% fetal bovine serum (South American origin; ThermoFisher Scientific # 10270) + 100 units/mL penicillin and streptomycin and 0.25 mg/mL geneticin.
The Fluo-4 Ca^2+-assay was performed as described previously, with minor modifications. After 1 hour incubation with the Fluo-4 dye, the CHO-GPR139 cells were washed with 100 μL HEPES buffer (Hank’s Balanced Salt Solution (HBBS, ThermoFisher Scientific # 14175053) supplemented with 20 mM HEPES, 1 mM MgCl2, 1 mM CaCl2, pH = 7.4) and the compound library was then added in concentrations between 25–63 μM dissolved in HEPES buffer (supplemented with 2.5 mM probenecid and 1% DMSO) and pre-incubated for 10 min at 37 °C. 33 μL of 3.2 μM 1a were added automatically after baseline measurements. […] This set-up allowed us to identify both antagonists and agonists (Fig. 2).
Each compound, for which a concentration response curve was made, was tested at least three times in duplicate measurements. After the incubation with the Fluo-4 dye and a wash, 100 μL HEPES buffer (supplemented with 2.5 mM probenecid) was added to each well and incubated for 10 minutes at 37 °C before recording. 33 μL of compounds (4× concentrated) were added automatically after baseline measurements.
as §1

Residue numbers refer to the chain shown, from its start.

By Emax is commonly meant the maximal effect, on the per cent scale that the assay sets.

`O=C(O)C1CC=CCC1c1nnc(CSc2ccc(Cl)cc2)o1` (stereo not drawn) [AC4]: the EC50 is 178 nM at GPR139 [1] (CHO-GPR139 cells, read-out: pEC50 ± SEM (converted)) and 219 nM on GPR139 [2] (CHO-GPR139 cells, read-out: pEC50 ± S.E.M. (converted)). In addition, the maximal response (Emax) on GPR139 [1] (expressed relative to FBS positive control) worked out at 77.2 ± 6.53%; on GPR139 [2] (CHO-GPR139 cells, normalized to buffer (0%) and 8 μM 1a (100%)), 116 ± 3%; at GPR139 [2] (Table S1, normalized to compound 1a), 115 ± 3%. The “Ca2+ response” value on GPR139 F109A^3×33 was “no measurable Ca^2+ response”.

Source of the values: PMC6405842, “Identification of a novel scaffold for a small molecule GPR139 receptor agonist” (Scientific Reports, 2019).
